Legend:
Nrf2 = assay: Intracellular distribution of Nrf2 protein in COS7 cells (immunofluorescence); assay type: cell-based; conditions: 10 μM CA
Description: Immunocytochemistry. Cultures were fixed with 3% paraformaldehyde at room temperature for 20 min. After three washes in PBS, the cells were permeabilized with 0.3% Triton X-100 for 5 min. After three additional washes in PBS, the cells were incubated at 4° C. overnight with primary antibodies. They were then washed three times in PBS containing 0.2% Tween 20 (PBS-T), and next incubated with secondary antibodies for 1 h at room temperature. Thereafter, the cells were again washed, and their nuclei stained with Hoechst 33,258 (5 μg/ml) or with DAPI (1 μg/ml) for 5 min. Stained preparations were mounted and examined by epifluorescence microscopy. The following primary antibodies were used: anti-Nrf2 antibody, anti-MAP2 and anti-NeuN antibodies to identify neurons (dendrites and nuclei, respectively), and anti-S100β antibody to identify astrocytes. As secondary antibodies, we used FITC-conjugated anti-mouse IgG, rhodamine-conjugated anti-mouse IgG, or rhodamine-conjugated streptavidin.
After binding of the electrophilic quinone-form of CA to Keap1 protein, activation of the Keap1/Nrf2 pathway requires nuclear translocation of Nrf2 (Talalay, Biofactors 12:5-11, 2000; Padmanabham et al., Mol. Cell 21:689-700, 2006; Itoh et al., Free Radic. Biol. Med. 36:1208-1213, 2004). Thus, we next examined the intracellular distribution of Nrf2 protein in COS7 cells by immunofluorescence.

GSH = assay: Brain GSH and GSSG after feeding CA; assay type: in vivo, mouse; conditions: food containing 0.03% CA for a week
Description: Mice were fed 0.03% CA for 1 week, and their brains were then removed, lysed and subjected to GSH and GSSG measurement.
Measurement of brain GSH. After exsanguination via heart puncture under ether anesthesia, mouse brains were removed and quickly frozen in liquid nitrogen. We ruled out GSH as a contaminant from blood vessels by HPLC analysis of blood components in the brain lysates.
The frozen brains were lysed with 1% sulfosalicylic acid on ice for 10 min, and total glutathione (reduced and oxidized) was determined as described previously (Sagara et al., 2002). Briefly, after the lysates had been incubated on ice for 10 min, the supernatants were collected after centrifugation in Eppendorf microfuge tubes. Upon neutralization of each supernatant with triethanolamine, the total glutathione (reduced and oxidized) concentration was determined. Pure GSH was used to obtain the standard curve. For the determination of oxidized GSH, the method of Griffith using 2-vinylpyridine was used to deplete the reduced GSH.
Mice were allowed free access to food containing 0.03% CA for a week. Their brains were then removed, and extracts were prepared and measured for GSH and GSSG levels. Under these conditions, CA increased both total GSH+GSSG and the ratio of GSH/GSSG (FIG. 6). […]

[1] = tested on: cAMP-responsive element (CRE); assay: Enhancer element luciferase reporter p3xCREluc; assay type: cell-based; conditions: NEPP11 2 μM
Description: (§1) Because the E1 and E2 regions also contain other enhancer elements, we tested the effects of NEPP11 (2 μM) on the expression of luciferase activity derived from these elements, including the cAMP-responsive element (CRE; p3xCREluc), AP-1 binding site (p3xAP1luc), NF-κB binding site (p3xNF-κBluc), NFAT-binding site (p3xNFATluc), ETS-binding site (p3xETSluc), and MEF2-binding site (p3xMEF2luc).

AP-1 binding site = assay: Enhancer element luciferase reporter p3xAP1luc; assay type: cell-based; conditions: NEPP11 2 μM
Description: as §1

NF-κB binding site = assay: Enhancer element luciferase reporter p3xNF-κBluc; assay type: cell-based; conditions: NEPP11 2 μM
Description: as §1

caspase-3 = assay: NMDA-induced caspase-3 activation; assay type: cell-based, rat; conditions: NEPP11 1 μM
From the text: Indeed, we found this to be the case.

| SMILES | localization of Nrf2 protein (Nrf2) | ratio of GSH/GSSG in brain (GSH) | total GSH+GSSG in brain (GSH) | activity of p3xCREluc [1] | activity of p3xAP1luc (AP-1 binding site) | p3xNF-κBluc expression (NF-κB binding site) | NMDA-induced caspase-3 activation (caspase-3) |
| --- | --- | --- | --- | --- | --- | --- | --- |
| CC(C)c1cc2c(c(O)c1O)[C@@]1(C(=O)O)CCCC(C)(C)[C@@H]1CC2 [CA, carnosic acid] | translocated into the nucleus | increased | increased |  |  |  |  |
| COC(=O)CCCCC/C=C1/C(=O)C=C[C@H]1CCCCCCc1ccc(C)cc1 [NEPP11] |  |  |  | slightly depressed | slightly depressed | minimally activated | inhibited |

Source: patent US8466311B2, “Neuroprotective compositions and methods” (Sanford-Burnham Medical Research Institute, priority 2006, dated 2013)
